Data on 29 compounds can be found in patent US20190231751A1, “TREATMENT OF FIBROTIC DISORDERS WITH JUN N-TERMINAL KINASE INHIBITORS” (Imago Pharmaceuticals, Inc., priority 2016, published 2019).

A value given as a limit tells only on which side of the number the result lay.

Assay [1] deals with JNK1 (Homo sapiens, UniProt P45983). The experiment in a line: In vitro JNK1 inhibition (Table 1). The class given is biochemical. On the procedure:
(§1) In vitro assays for the determination of JNK activities are known in the art and exemplary assay formats are described herein.
(§2) IC50 values in Table 1 were determined using the procedures as described in U.S. Pat. No. 8,450,353.

Assay [2] addresses JNK3 (Homo sapiens, UniProt P53779). The experiment in a line: In vitro JNK3 inhibition (Table 1). The class given is biochemical. As for the experimental part: as §1, §2

Sequence of JNK1 (P45983 whole entry, species assumed): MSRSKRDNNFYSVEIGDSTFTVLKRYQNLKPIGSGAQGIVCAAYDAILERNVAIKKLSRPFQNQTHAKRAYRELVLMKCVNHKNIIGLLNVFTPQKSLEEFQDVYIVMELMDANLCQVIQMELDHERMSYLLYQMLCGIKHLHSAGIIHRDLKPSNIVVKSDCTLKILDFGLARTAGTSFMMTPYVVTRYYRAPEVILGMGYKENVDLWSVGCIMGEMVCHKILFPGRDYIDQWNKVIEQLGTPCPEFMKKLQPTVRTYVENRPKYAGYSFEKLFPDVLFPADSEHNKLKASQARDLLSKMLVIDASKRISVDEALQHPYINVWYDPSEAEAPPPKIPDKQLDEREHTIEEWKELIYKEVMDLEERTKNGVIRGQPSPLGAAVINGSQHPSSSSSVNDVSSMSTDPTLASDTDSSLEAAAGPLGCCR
Sequence of JNK3 (P53779 whole entry, species assumed): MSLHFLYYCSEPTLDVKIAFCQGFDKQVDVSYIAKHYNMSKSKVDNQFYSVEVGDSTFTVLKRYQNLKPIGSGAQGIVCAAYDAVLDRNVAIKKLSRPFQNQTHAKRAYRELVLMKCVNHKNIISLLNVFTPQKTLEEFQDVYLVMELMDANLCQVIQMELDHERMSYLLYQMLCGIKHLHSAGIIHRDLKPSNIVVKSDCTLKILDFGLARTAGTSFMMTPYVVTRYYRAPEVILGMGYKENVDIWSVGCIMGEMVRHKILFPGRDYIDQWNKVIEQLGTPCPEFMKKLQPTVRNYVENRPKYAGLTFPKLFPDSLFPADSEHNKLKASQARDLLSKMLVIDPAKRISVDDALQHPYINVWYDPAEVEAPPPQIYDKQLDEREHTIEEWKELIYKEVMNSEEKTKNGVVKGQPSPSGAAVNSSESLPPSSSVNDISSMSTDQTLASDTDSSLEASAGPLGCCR

Turning to `O=C(Cn1c(=O)ccc2cnccc21)Nc1ccsc1-c1cscn1` [2-(2-oxo-1,6-naphthyridin-1(2H)-yl)-N-(2-(thiazol-4-yl)thiophen-3-yl)acetamide], in assay [1], the IC50 was < 0.1 µM.

As for `O=C(Cn1c(=O)ccc2cc(C(F)(F)F)ccc21)Nc1ccsc1-c1cscn1` [2-(2-oxo-6-(trifluoromethyl)quinolin-1(2H)-yl)-N-(2-(thiazol-4-yl)thiophen-3-yl)acetamide], the IC50 in assay [2] and in assay [1] was < 0.1 µM throughout.

For `COc1ccc(CC(=O)Nc2ccsc2-c2c[nH]c(C)n2)cc1` [2-(4-methoxyphenyl)-N-(2-(2-methyl-1H-imidazol-4-yl)thiophen-3-yl)acetamide], the IC50 in assay [2] and in assay [1] was > 10 µM in each case.

For `COc1ccc(CC(=O)Nc2ccsc2N2CCOC2=O)cc1` [2-(4-methoxyphenyl)-N-(2-(2-oxooxazolidin-3-yl)thiophen-3-yl)acetamide], in assay [2], the half-inhibitory concentration (IC50) is > 10 µM.

As for `COc1ccc(CC(=O)Nc2ccsc2-c2nc(-c3ccncc3)n[nH]2)cc1` [2-(4-methoxyphenyl)-N-(2-(3-(pyridin-4-yl)-1H-1,2,4-triazol-5-yl)thiophen-3-yl)acetamide], the concentration for half-maximal inhibition (IC50) in assay [2] was > 10 µM.

As to `O=C(Cc1cccc2ncsc12)Nc1scc(Br)c1-c1ncn[nH]1` [2-(benzo[d]thiazol-7-yl)-N-(4-bromo-3-(1H-1,2,4-triazol-5-yl)thiophen-2-yl)acetamide], the half-maximal inhibitory concentration (IC50) in assay [2] and in assay [1] was < 0.1 µM throughout.

`Cc1nc(-c2sccc2NC(=O)Cc2cccc3ccccc23)n(C)n1` [N-(2-(1,3-dimethyl-1H-1,2,4-triazol-5-yl)thiophen-3-yl)-2-(naphthalen-1-yl)acetamide]: the half-inhibitory concentration (IC50) in assay [2] and in assay [1] was > 10 µM each time.

As to `Cn1ccnc1-c1sccc1NC(=O)Cc1cccc2ccccc12` [N-(2-(1-methyl-1H-imidazol-2-yl)thiophen-3-yl)-2-(naphthalen-1-yl)acetamide], the concentration for half-maximal inhibition (IC50) in assay [2] and in assay [1] was > 10 µM each time.

Take `Cn1ccc(-c2sccc2NC(=O)Cc2cccc3ccccc23)n1` [N-(2-(1-methyl-1H-pyrazol-3-yl)thiophen-3-yl)-2-(naphthalen-1-yl)acetamide]: the half-maximal inhibitory concentration (IC50) in assay [2] and in assay [1] was > 10 µM throughout.

Regarding `COc1ccc(CC(=O)Nc2ccsc2-n2cncn2)cc1` [N-(2-(1H-1,2,4-triazol-1-yl)thiophen-3-yl)-2-(4-methoxyphenyl)acetamide], the IC50 in assay [2] and in assay [1] was > 10 µM each time.

On to `O=C(Cc1cccc2ccccc12)Nc1ccsc1-n1ccnc1` [N-(2-(1H-imidazol-1-yl)thiophen-3-yl)-2-(naphthalen-1-yl)acetamide], for which the IC50 in assay [2] was in the range of 0.1 to 10 µM.

As for `COc1ccc(CC(=O)Nc2ccsc2-c2c[nH]cn2)cc1` [N-(2-(1H-imidazol-4-yl)thiophen-3-yl)-2-(4-methoxyphenyl)-acetamide], the IC50 in assay [2] and in assay [1] was > 10 µM each time.

For the compound `COc1ccc(CC(=O)Nc2ccsc2-n2cccn2)cc1` [N-(2-(1H-pyrazol-1-yl)thiophen-3-yl)-2-(4-methoxyphenyl)-acetamide], the IC50 in assay [2] and in assay [1] was > 10 µM each time.

`Cc1nc(-c2sccc2NC(=O)CN2C(=O)CCc3ccccc32)c[nH]1` [N-(2-(2-methyl-1H-imidazol-4-yl)thiophen-3-yl)-2-(2-oxo-3,4-dihydroquinolin-1(2H)-yl)acetamide]: the IC50 in assay [2] and in assay [1] was > 10 µM in each case.

On to `COc1ccc(CC(=O)Nc2ccsc2-n2nccn2)cc1` [N-(2-(2H-1,2,3-triazol-2-yl)thiophen-3-yl)-2-(4-methoxyphenyl)acetamide], for which the half-inhibitory concentration (IC50) in assay [2] and in assay [1] was 0.1 to 10 µM throughout.

Consider `COc1ccc(CC(=O)Nc2ccsc2-c2nnc(C(C)C)o2)cc1` [N-(2-(5-isopropyl-1,3,4-oxadiazol-2-yl)thiophen-3-yl)-2-(4-methoxyphenyl)acetamide], for which the half-maximal inhibitory concentration (IC50) in assay [2] and in assay [1] was > 10 µM throughout.

On to `O=C(Cn1c(=O)ccc2cc(F)c(F)cc21)Nc1sccc1-c1ncon1` [N-(3-(1,2,4-oxadiazol-3-yl)thiophen-2-yl)-2-(6,7-difluoro-2-oxoquinolin-1(2H)-yl)acetamide], for which the IC50 in assay [1] was < 0.1 µM.

With `COCn1nnnc1-c1ccsc1NC(=O)Cc1ccc(OC)cc1` [N-(3-(1-(methoxymethyl)-1H-tetrazol-5-yl)thiophen-2-yl)-2-(4-methoxyphenyl)acetamide], the half-inhibitory concentration (IC50) in assay [2] and in assay [1] was 0.1 to 10 µM in each case.

Take `O=C(CN1C(=O)CCc2ccccc21)Nc1sccc1-c1ncn[nH]1` [N-(3-(1H-1,2,4-triazol-5-yl)thiophen-2-yl)-2-(2-oxo-3,4-dihydroquinolin-1(2H)-yl)acetamide]: the 50% inhibitory concentration (IC50) in assay [1] was < 0.1 µM.

Consider `O=C(Cc1cccc2cnccc12)Nc1scnc1-c1cscn1` [N-(4,4′-bithiazol-5-yl)-2-(isoquinolin-5-yl)acetamide], for which the IC50 in assay [2] and in assay [1] was < 0.1 µM throughout.

As to `O=C(Cc1cccc2ncc(C(F)(F)F)cc12)Nc1scc(Br)c1-c1nc[nH]n1` [N-(4-bromo-3-(1H-1,2,4-triazol-3-yl)thiophen-2-yl)-2-(3-(trifluoromethyl)quinolin-5-yl)acetamide], the concentration for half-maximal inhibition (IC50) in assay [2] and in assay [1] was < 0.1 µM throughout.

As for `O=C(Cc1cccc2cc(F)cnc12)Nc1scc(Br)c1-c1nc[nH]n1` [N-(4-bromo-3-(1H-1,2,4-triazol-3-yl)thiophen-2-yl)-2-(3-fluoroquinolin-8-yl)acetamide], the IC50 in assay [1] is < 0.1 µM.

On to `O=C(Cc1cc2ncccc2cc1F)Nc1scc(Br)c1-c1ncn[nH]1` [N-(4-bromo-3-(1H-1,2,4-triazol-5-yl)thiophen-2-yl)-2-(6-fluoroquinolin-7-yl)acetamide], for which the IC50 in assay [1] was < 0.1 µM.

On to `Cc1cn2c(CC(=O)Nc3scc(Br)c3-c3ncn[nH]3)csc2n1` [N-(4-bromo-3-(1H-1,2,4-triazol-5-yl)thiophen-2-yl)-2-(6-methylimidazo[2,1-b]thiazol-3-yl)acetamide], for which the IC50 in assay [1] was < 0.1 µM.

For the compound `O=C(Cc1cccc2nccn12)Nc1scc(Br)c1-c1ncn[nH]1` [N-(4-bromo-3-(1H-1,2,4-triazol-5-yl)thiophen-2-yl)-2-(imidazo[1,2-a]pyridin-5-yl)acetamide], in assay [1], the IC50 was < 0.1 µM.

On to `O=C(CN1C(=O)C(F)(F)c2ccccc21)Nc1scc(Br)c1-c1nnc[nH]1` [N-(4-bromo-3-(4H-1,2,4-triazol-3-yl)thiophen-2-yl)-2-(3,3-difluoro-2-oxoindolin-1-yl)acetamide], for which the IC50 in assay [1] was < 0.1 µM.

For the compound `O=C(Cc1ccc(C(F)(F)F)c2ncccc12)Nc1scc(Cl)c1-c1ncn[nH]1` [N-(4-chloro-3-(1H-1,2,4-triazol-5-yl)thiophen-2-yl)-2-(8-(trifluoromethyl)quinolin-5-yl)acetamide], the IC50 in assay [1] is < 0.1 µM.

Consider `CC(C)c1n[nH]c(-c2c(Cl)csc2NC(=O)CN2C(=O)CCc3ncccc32)n1` [N-(4-chloro-3-(3-isopropyl-1H-1,2,4-triazol-5-yl)thiophen-2-yl)-2-(2-oxo-3,4-dihydro-1,5-naphthyridin-1(2H)-yl)acetamide], for which, in assay [1], the IC50 was < 0.1 µM.

In assay [2], `Cc1nnc(-c2c(C)csc2NC(=O)Cc2ccc(-c3ccncc3)cc2)[nH]1` [N-(4-methyl-3-(5-methyl-4H-1,2,4-triazol-3-yl)thiophen-2-yl)-2-(4-(pyridin-4-yl)phenyl)acetamide] gave an IC50 of 0.1 to 10 µM.
